According to patent US20230366887A1, “METHODS OF DETECTING AND USING BIOMARKERS FOR GLYCOGEN STORAGE DISEASES” (Duke University, priority 2020, published 2023):
Several values for one entry are separate records, joined by “and”; a condition that tells them apart may be missing. Equal values may be shown once.

Experiments:
1,5-AG = assay: Level of 1,5-AG in subjects having GSD Ib after Jardiance treatment; format: in vivo, human; details: reference range in normal adults 10.7-32.0, in µg/mL (unit assumed)
Procedure: The level of 1,5-AG was determined in 6 subjects having GSD Ib. Here, the reference range of 1,5-AG in normal, non-GSD Ib adults is 10.7-32.0.

[1] = cited from earlier work

Structure (SMILES) | Level of 1,5-AG After Jardiance Treatment (1,5-AG; first value after treatment) | Level of 1,5-AG After Jardiance Treatment (1,5-AG; later value ('then')) | half-life in blood ([1]; blood) | excreted amount in urine reabsorbed by the kidneys ([1]; reabsorption at sodium glucose active cotransporter (SGLT4))
OC[C@H]1O[C@@H](c2ccc(Cl)c(Cc3ccc(O[C@H]4CCOC4)cc3)c2)[C@H](O)[C@@H](O)[C@@H]1O [Jardiance] | 20.7 and 33.1 | 7.8 | – | –
OC[C@H]1OC[C@H](O)[C@@H](O)[C@@H]1O [1,5-AG, 1,5-anhydroglucitol] | – | – | 1-2 weeks | About 99.9%
